The test deals with primary rat mixed cortical cells. Nature of the test: In vitro myelination assay (MBP positive myelin strands, fold myelin pixels above background). Type of test: cell-based. The conditions noted are these: Rattus norvegicus; for fold induction at 1 µM: 1.0 μM compound; for fold induction at 10 µM: 10.0 μM compound. A digest of the protocol:
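Read-out is total MBP-positive myelin strand pixels per well, detected by custom ridge-tracing software and reported as fold over untreated baseline. Primary P1 rat mixed cortical cells received compound (1.0 or 10.0 μM) for 14 days, with medium half-replaced on days 6 and 10. Standard deviation was taken across all replicates.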

Setting [1] is: relative to baseline of no added compound, read-out: Fold myelin pixels above background.
The mark [2] stands for this setting: read-out: Fold myelin pixels above background relative to baseline of no added compound.
Where [3] appears, read: relative to baseline of no added compound, read-out: Fold myelin pixels above background, 1.0 μM.
Setting [4] is: relative to baseline of no added compound, read-out: Fold myelin pixels above background, 10.0 μM.

SMILES strings stand for the structures. Read-outs that look alike come from different tables or passages of the source.

`Cc1cc(Nc2ncn(-c3cccc(C(F)F)c3)n2)cc(N2CC(N3CCOCC3)C2)c1` [Compound 595, 1-[3-(difluoromethyl)phenyl]-N-[3-methyl-5-(3-morpholinoazetidin-1-yl)phenyl]-1,2,4-triazol-3-amine]: under setting [1], the fold induction at 1 µM was in the range of 1 to 10 and the fold induction at 10 µM is at most 1.

`Cc1cc(Nc2ncn(-c3cc(F)cc(F)c3)n2)cc(N2CCOC(COCC3CC3)C2)c1` (stereo not drawn) [Compound 1087, N-[3-[2-(cyclopropylmethoxymethyl)morpholin-4-yl]-5-methyl-phenyl]-1-(3,5-difluorophenyl)-1,2,4-triazol-3-amine]: under setting [2], the fold induction at 1 µM was 1 to 10 and the fold induction at 10 µM is 1 to 10.

As to `[2H]C1([2H])N(c2cc(C)cc(Nc3ncn(-c4cc(F)cc(F)c4)n3)c2)C([2H])([2H])C([2H])([2H])N(C2CCC2)C1([2H])[2H]` [Compound 994, N-[3-(4-cyclobutyl-2,2,3,3,5,5,6,6-octadeuterio-piperazin-1-yl)-5-methyl-phenyl]-1-(3,5-difluorophenyl)-1,2,4-triazol-3-amine], under setting [2], the fold induction at 1 µM fell in the range of 1 to 10 and the fold induction at 10 µM lay within 1 to 10.

On to `Cc1cc(NCC(=O)N2CCCC2)cc(Nc2ncn(-c3cc(F)cc(F)c3)n2)c1` [Compound 993, 2-[3-[[1-(3,5-difluorophenyl)-1,2,4-triazol-3-yl]amino]-5-methyl-anilino]-1-pyrrolidin-1-yl-ethanone], for which, under setting [2], the fold induction at 1 µM was in the range of 1 to 10 and the fold induction at 10 µM was in the range of 10 to 100.

Consider `Cc1cc(Nc2ncn(-c3cnccn3)n2)cc(N2CCN(C3CC3)CC2)c1` [Compound 20, N-[3-(4-cyclopropylpiperazin-1-yl)-5-methyl-phenyl]-1-pyrazin-2-yl-1,2,4-triazol-3-amine], for which, under setting [3], the fold induction at 1 µM fell in the range of 10 to 100. For the same compound, under setting [4], the fold induction at 10 µM was in the range of 100 to 1000.

Turning to `Cc1cc(NCC(N2CCOCC2)C(F)(F)F)cc(Nc2ncn(-c3cc(F)cc(F)c3)n2)c1` (stereo not drawn) [Compound 899, N1-[1-(3,5-difluorophenyl)-1,2,4-triazol-3-yl]-5-methyl-N3-(3,3,3-trifluoro-2-morpholino-propyl)benzene-1,3-diamine], under setting [2], the fold induction at 1 µM is 1 to 10 and the fold induction at 10 µM lay in the range of 1 to 10.

`Cc1cc(Nc2ncn(-c3cc(F)cc(F)c3)n2)cc(NC2CC(N3CCOCC3)C2)c1` (stereo not drawn) [Compound 797, N3-[1-(3,5-difluorophenyl)-1,2,4-triazol-3-yl]-5-methyl-N1-(3-morpholinocyclobutyl)benzene-1,3-diamine]: under setting [2], the fold induction at 1 µM was in the range of 1 to 10 and the fold induction at 10 µM is at most 1.

Regarding `Cc1cc(N2CCOCC2)cc(Nc2ncn(-c3ccccn3)n2)c1F` [Compound 307, N-(2-fluoro-3-methyl-5-morpholino-phenyl)-1-(2-pyridyl)-1,2,4-triazol-3-amine], the fold induction at 1 µM under setting [3] lay in the range of 1 to 10. For the same compound, the fold induction at 10 µM under setting [4] was 10 to 100.

For the compound `Cc1cc(NCC(C)N2CC(C)OC(C)C2)cc(Nc2ncn(-c3cc(F)cc(F)c3)n2)c1` (stereo not drawn) [Compound 882, N1-[1-(3,5-difluorophenyl)-1,2,4-triazol-3-yl]-N3-[2-(2,6-dimethylmorpholin-4-yl)propyl]-5-methyl-benzene-1,3-diamine], under setting [2], the fold induction at 1 µM is 1 to 10 and the fold induction at 10 µM lay within 1 to 10.

For `CCC(CNc1cc(C)cc(Nc2ncn(-c3cc(F)cc(F)c3)n2)c1)N1CCOCC1` (stereo not drawn) [Compound 985, N3-[1-(3,5-difluorophenyl)-1,2,4-triazol-3-yl]-5-methyl-N1-(2-morpholinobutyl)benzene-1,3-diamine], under setting [2], the fold induction at 1 µM lay in the range of 1 to 10 and the fold induction at 10 µM fell in the range of 1 to 10.

With `Cc1cc(NCCC2CCCO2)cc(Nc2ncn(-c3cc(F)cc(F)c3)n2)c1` (stereo not drawn) [Compound 496, N1-[1-(3,5-difluorophenyl)-1,2,4-triazol-3-yl]-5-methyl-N3-(2-tetrahydrofuran-2-ylethyl)benzene-1,3-diamine], under setting [1], the fold induction at 1 µM fell in the range of 100 to 1000 and the fold induction at 10 µM lay in the range of 1 to 10.

With `Cc1cc(Nc2ncn(-c3cc(F)cc(F)c3)n2)cc(N2CC(C3CCOC3)C2)c1` (stereo not drawn) [Compound 890, 1-(3,5-difluorophenyl)-N-[3-methyl-5-(3-tetrahydrofuran-3-ylazetidin-1-yl)phenyl]-1,2,4-triazol-3-amine], under setting [2], the fold induction at 1 µM was 1 to 10 and the fold induction at 10 µM lay within 10 to 100.

For the compound `Cc1cc(NCCN2CCOCC2C)cc(Nc2ncn(-c3cc(F)cc(F)c3)n2)c1` (stereo not drawn) [Compound 1082, N1-[1-(3,5-difluorophenyl)-1,2,4-triazol-3-yl]-5-methyl-N3-[2-(3-methylmorpholin-4-yl)ethyl]benzene-1,3-diamine], under setting [2], the fold induction at 1 µM lay within 10 to 100 and the fold induction at 10 µM was at most 1.

`CCN(C)Cc1cc(F)cc(-n2cnc(Nc3cc(C)cc(N4CCN(C)CC4)c3)n2)c1` [Compound 390, 1-[3-[[ethyl(methyl)amino]methyl]-5-fluoro-phenyl]-N-[3-methyl-5-(4-methylpiperazin-1-yl)phenyl]-1,2,4-triazol-3-amine]: under setting [1], the fold induction at 1 µM was 10 to 100 and the fold induction at 10 µM was 10 to 100.

In the case of `N#Cc1cc(Nc2ncn(-c3cccc(F)c3)n2)cc(N2CCOCC2)c1` [Compound 737, 3-[[1-(3-fluorophenyl)-1,2,4-triazol-3-yl]amino]-5-morpholino-benzonitrile], under setting [1], the fold induction at 1 µM was 10 to 100 and the fold induction at 10 µM is 10 to 100.

Consider `COc1cc(Nc2ncn(-c3cccc(C(F)(F)F)c3)n2)cc(N2CCN(C3COC3)CC2)c1` [Compound 662, N-[3-methoxy-5-[4-(oxetan-3-yl)piperazin-1-yl]phenyl]-1-[3-(trifluoromethyl)phenyl]-1,2,4-triazol-3-amine], for which, under setting [1], the fold induction at 1 µM was 10 to 100 and the fold induction at 10 µM was at most 1.

With `CCc1cc(Nc2ncn(-c3cc(C)ccc3F)n2)cc(N2CCN(C3COC3)CC2)c1` [Compound 338, N-[3-ethyl-5-[4-(oxetan-3-yl)piperazin-1-yl]phenyl]-1-(2-fluoro-5-methyl-phenyl)-1,2,4-triazol-3-amine], under setting [3], the fold induction at 1 µM was in the range of 1 to 10. In addition, the fold induction at 10 µM under setting [4] is 10 to 100.

Consider `Fc1cc(F)cc(-n2cnc(Nc3cc(N4CC(N5CCOCC5)C4)cc(N4CC(N5CCOCC5)C4)c3)n2)c1` [Compound 868, N-[3,5-bis(3-morpholinoazetidin-1-yl)phenyl]-1-(3,5-difluorophenyl)-1,2,4-triazol-3-amine], for which, under setting [2], the fold induction at 1 µM lay within 1 to 10 and the fold induction at 10 µM was 1 to 10.

As to `CN1CCN(c2cc(Nc3ncn(-c4ccccc4)n3)cc(Cl)n2)CC1` [Compound 367, 2-chloro-6-(4-methylpiperazin-1-yl)-N-(1-phenyl-1,2,4-triazol-3-yl)pyridin-4-amine], the fold induction at 1 µM under setting [3] lay in the range of 100 to 1000. The fold induction at 10 µM under setting [4] fell in the range of 100 to 1000.

For `Cc1cc(Nc2ncn(-c3cnccn3)n2)cc(N2CC3(C2)CN(C(C)C)C3)c1` [Compound 967, N-[3-(2-isopropyl-2,6-diazaspiro[3.3]heptan-6-yl)-5-methyl-phenyl]-1-pyrazin-2-yl-1,2,4-triazol-3-amine], under setting [2], the fold induction at 1 µM lay in the range of 10 to 100 and the fold induction at 10 µM was at most 1.

For `COCCN1CCCC(Nc2cc(C)cc(Nc3ncn(-c4cc(F)cc(F)c4)n3)c2)C1` (stereo not drawn) [Compound 1050, N3-[1-(3,5-difluorophenyl)-1,2,4-triazol-3-yl]-N1-[1-(2-methoxyethyl)-3-piperidyl]-5-methyl-benzene-1,3-diamine], under setting [2], the fold induction at 1 µM lay within 10 to 100 and the fold induction at 10 µM is at most 1.

Turning to `CC(C)c1cc(Nc2ncn(-c3cnccn3)n2)cc(N2CCN(C3COC3)CC2)c1` [Compound 536, N-[3-isopropyl-5-[4-(oxetan-3-yl)piperazin-1-yl]phenyl]-1-pyrazin-2-yl-1,2,4-triazol-3-amine], under setting [1], the fold induction at 1 µM lay in the range of 100 to 1000 and the fold induction at 10 µM was in the range of 100 to 1000.

`COCCN1CCC(Nc2cc(C)cc(Nc3ncn(-c4cc(F)cc(F)c4)n3)c2)C1` (stereo not drawn) [Compound 894, N3-[1-(3,5-difluorophenyl)-1,2,4-triazol-3-yl]-N1-[1-(2-methoxyethyl)pyrrolidin-3-yl]-5-methyl-benzene-1,3-diamine]: under setting [2], the fold induction at 1 µM fell in the range of 10 to 100 and the fold induction at 10 µM was at most 1.

As to `Cc1cc(Nc2ncn(-c3ccc(F)c(F)c3)n2)cc(N2CCN(CC(F)(F)F)CC2)c1` [Compound 231, 1-(3,4-difluorophenyl)-N-[3-methyl-5-[4-(2,2,2-trifluoroethyl)piperazin-1-yl]phenyl]-1,2,4-triazol-3-amine], the fold induction at 1 µM under setting [3] lay in the range of 100 to 1000. For the same compound, under setting [4], the fold induction at 10 µM lay in the range of 100 to 1000.

In the case of `Cc1cc(Nc2ncn(-c3ccccc3)n2)cc(N2CCCN(C)CC2)c1` [Compound 179, N-[3-methyl-5-(4-methyl-1,4-diazepan-1-yl)phenyl]-1-phenyl-1,2,4-triazol-3-amine], the fold induction at 1 µM under setting [3] fell in the range of 100 to 1000. The fold induction at 10 µM under setting [4] was at most 1.

On to `COc1cccc(-n2cnc(Nc3cc(Cl)nc(N4CCOCC4)c3)n2)c1` [Compound 145, 2-chloro-N-[1-(3-methoxyphenyl)-1,2,4-triazol-3-yl]-6-morpholino-pyridin-4-amine], for which the fold induction at 1 µM under setting [3] is 10 to 100. The fold induction at 10 µM under setting [4] lay within 10 to 100.

`Cc1cc(Nc2ncn(-c3cc(F)cc(N4CC[C@@H](F)C4)c3)n2)cc(N2CCN(C3COC3)CC2)c1` [Compound 467, 1-[3-fluoro-5-[(3R)-3-fluoropyrrolidin-1-yl]phenyl]-N-[3-methyl-5-[4-(oxetan-3-yl)piperazin-1-yl]phenyl]-1,2,4-triazol-3-amine]: under setting [1], the fold induction at 1 µM lay within 100 to 1000 and the fold induction at 10 µM is 10 to 100.

Values taken from patent publication US10766869B2, “Triazoles for the treatment of demyelinating dieases” (Vertex Pharmaceuticals Incorporated, priority 2015, dated 2020).
